Measured values as given in US20160029683A1, “LOW CALORIE INFANT FORMULA CONTAINING BETA-HYDROXY-BETA-METHYLBUTYRIC ACID” (ABBOTT LABORATORIES, priority 2013, published 2016).
Entries after “also recorded” stand apart in the source; their conditions may differ.

Assays:
[1] = tested on: markers of protein degradation; assay: Markers of protein degradation (overall analysis); assay type: in vivo, neonatal pigs; conditions: overall analysis of the piglet data
Method: (§1) Overnight fasted neonatal pigs (5-7 days old) were infused with HMB with 0, 20, 100, or 400 μmol·kg^−1·hr^−1 HMB. Blood plasma concentrations of the following circulating substrates were measured. HMB was measured using gas chromatography per the method set forth in: Nissen, Steven (1990). Analysis of β-Hydroxy-β-methyl Butyrate in Plasma by Gas […] Chromatography and Mass Spectrometry Analytical Biochemistry 188, 17-19.
(§2) At the end of the infusion, the piglets were sacrificed and the fractional protein synthesis rates were measured by measuring ^3H incorporation into protein fractions after a flooding dose of L[4-^3H]phenylalanine using the method set forth in Garlick P. J. (1980). A rapid and convenient technique for measuring the rate of protein synthesis in tissues by injection of [3H]Phenylalanine Biochem J 192:719-723. Activation of translation initiation was measured in the stomach, duodenum, jejunum, colon, pancreas, kidney, brain and skin. The abundance of intracellular proteins involved in signaling of protein synthesis and in processes related to protein degradation was measured in tissue homogenates by immunoblotting using commercially available antibodies.

LC3-II/LC3-I = assay: Ratio of LC3-II/LC3-I in muscles; assay type: in vivo, neonatal pigs
Method: as §1, §2
The ratio of LC3-II/LC3-I is an indicator of autophagy/lysosomal protein degradation.

4EBP1 = assay: Phosphorylation of 4EBP1 in muscles (immunoblotting); assay type: in vivo, neonatal pigs
Method: as §1, §2
The phosphorylation of 4EBP1 is an indicator of mTORC1 signaling to translation.

[2] = tested on: protein synthesis in longissimus dorsi, gastrocnemius, soleus, diaphragm, duodenum and brain; assay: Comparison of protein synthesis rates after infusion of HMB or leucine; assay type: in vivo, neonatal pigs; conditions: HMB 20, 100 or 400 μmol kg^−1 h^−1 vs leucine 400 μmol·kg^−1·hour^−1
Method: as §1, §2

[3] = tested on: protein degradation in the muscles of adults; conditions: literature (Smith 2004, 2005); cited from earlier work
[4] = tested on: protein synthesis in the spleen; assay: Fractional rate of protein synthesis in the spleen of HMB-infused piglets; assay type: in vivo, neonatal pigs; conditions: infusion rate of 20 μmol·kg^−1·hour^−1 HMB for one hour
Method: as §1, §2

[5] = tested on: protein synthesis in skeletal muscles; assay: Fractional rate of protein synthesis in skeletal muscles of HMB-infused piglets; assay type: in vivo, neonatal pigs
Method: as §1, §2

S6K1 = assay: Phosphorylation of S6K1 in muscles (immunoblotting); assay type: in vivo, neonatal pigs
Method: as §1, §2
The phosphorylation of S6K1 is an indicator of mTORC1 signaling to translation.

[6] = tested on: protein synthesis in the lung; assay: Fractional rate of protein synthesis in the lung of HMB-infused piglets; assay type: in vivo, neonatal pigs; conditions: infusion rate of 20 μmol·kg^−1·hour^−1 HMB for one hour
Method: as §1, §2

elF4E·elF4G complex = assay: Formation of the active elF4E·elF4G complex in muscles; assay type: in vivo, neonatal pigs
Atrogin-1 = assay: Expression of Atrogin-1 in muscles; assay type: in vivo, neonatal pigs
Method: as §1, §2
Atrogin-1 is a muscle-specific ubiquitin ligase.

[7] = Blood plasma concentration of HMB in piglets infused with HMB; assay type: in vivo, neonatal pigs; conditions: pig, intravenous
Method: as §1

mTORC1 = mTORC1 signaling to translation (overall analysis); assay type: in vivo, neonatal pigs; conditions: overall analysis of the piglet data
Method: as §1, §2

amino acid transporters = assay: Level of amino acid transporters; assay type: in vivo, neonatal pigs; conditions: overall analysis of the piglet data
Method: as §2

eEF2 = assay: Phosphorylation of eEF2 in muscles; assay type: in vivo, neonatal pigs
Method: as §1, §2
The formation of phosphorylation of eEF2 regulates […].

MURF1 = assay: Expression of MURF1 in muscles; assay type: in vivo, neonatal pigs
Method: as §1, §2
MURF1 is a muscle-specific ubiquitin ligase.

elF2α = assay: Phosphorylation of elF2α in muscles; assay type: in vivo, neonatal pigs
Method: as §1, §2
The formation of phosphorylation of elF2α regulates tRNA-ribosome binding.

[8] = 20 μmol·kg^−1·hour^−1 HMB for one hour
[9] = 100 μmol·kg^−1·hour^−1 HMB for one hour
[10] = 20 μmol·kg^−1·hour^−1 HMB for one hour, diaphragm
[11] = 20 μmol·kg^−1·hour^−1 HMB for one hour, longissimus dorsi, gastrocnemius and soleus
[12] = 100 μmol·kg^−1·hour^−1 HMB for one hour, diaphragm
[13] = 100 μmol·kg^−1·hour^−1 HMB for one hour, longissimus dorsi, gastrocnemius and soleus

concentration at 1 h ([7]; piglets infused with 20 μmol·kg^−1·hr^−1 HMB): 90 µM | concentration at 1 h ([7]; piglets infused with 100 μmol·kg^−1·hr^−1 HMB): 316 µM | concentration at 1 h ([7]; piglets infused with 400 μmol·kg^−1·hr^−1 HMB): 1400 µM
Structure (SMILES): CC(C)(O)CC(=O)O [HMB, beta-hydroxy-beta-methylbutyric acid]
markers of protein degradation [1]: did not affect | ratio of LC3-II/LC3-I (LC3-II/LC3-I; [8]): did not affect | ratio of LC3-II/LC3-I (LC3-II/LC3-I; [9]): did not affect | phosphorylation of 4EBP1 (4EBP1; [10]): increased | phosphorylation of 4EBP1 (4EBP1; [11]): increased | phosphorylation of 4EBP1 (4EBP1; [12]): not | phosphorylation of 4EBP1 (4EBP1; [13]): increased | effectiveness in increasing protein synthesis compared with leucine [2]: equal to or more effective; also recorded: as effective as leucine | protein degradation in the muscles of adults [3]: attenuates protein degradation | protein synthesis in the spleen [4]: increase | fractional rates of protein synthesis in the skeletal muscles ([5]; 20 μmol·kg^−1·hour^−1 HMB, longissimus dorsi, gastrocnemius, soleus and diaphragm, P<0.05): increased | protein synthesis in the gastrocnemius, soleus and diaphragm muscles ([5]; 100 μmol·kg^−1·hour^−1 HMB): not significantly | protein synthesis in the longissimus dorsi muscle ([5]; 100 μmol·kg^−1·hour^−1 HMB, P<0.05): increased | protein synthesis in the skeletal muscles ([5]; 400 μmol·kg^−1·hour^−1 HMB): no significant effect | impact on protein synthesis in 4 muscles (fast twitch, slow twitch, voluntary and involuntary) ([5]; highest dose, 400 μmol kg^−1 h^−1, compared with other doses): least impact | impact on protein synthesis in 4 muscles (fast twitch, slow twitch, voluntary and involuntary) ([5]; lowest dose of HMB 20 μmol kg^−1 h^−1, compared with other doses): greatest impact | phosphorylation of S6K1 (S6K1; [10]): increased | phosphorylation of S6K1 (S6K1; [11]): increased | phosphorylation of S6K1 (S6K1; [13]): increased | protein synthesis in the lung [6]: increase | formation of active eIF4E·eIF4G complex (elF4E·elF4G complex; [10]): increased | formation of active eIF4E·eIF4G complex (elF4E·elF4G complex; [11]): increased | formation of active eIF4E·eIF4G complex (elF4E·elF4G complex; [12]): not | formation of active eIF4E·eIF4G complex (elF4E·elF4G complex; [13]): increased | expression of Atrogin-1 (Atrogin-1; [8]): did not affect | expression of Atrogin-1 (Atrogin-1; [9]): did not affect | activation of protein synthesis via mTORC1 (mTORC1): activated protein synthesis by inducing mTORC1 | level of amino acid transporters (amino acid transporters): did not affect | phosphorylation of eEF2 (eEF2; [8]): did not affect | phosphorylation of eEF2 (eEF2; [9]): did not affect | expression of MURF1 (MURF1; [8]): did not affect | expression of MURF1 (MURF1; [9]): did not affect | phosphorylation of elF2α (elF2α; [8]): did not affect | phosphorylation of elF2α (elF2α; [9]): did not affect
